In patent publication US9962329B2, “Cosmetic use of the combination of a carob germ extract and caffeine as a slimming active agent” (ISP INVESTMENTS INC., priority 2012, dated 2018):

Assays:
aquaglyceroporin 7 = assay: Immuno-detection of aquaglyceroporin 7 expression in differentiated 3T3-L1 adipocyte cells; assay type: cell-based; settings: differentiated 3T3-L1 cells; with respect to untreated control; carob extract 1% daily for 12 days, caffeine 2 mM for 5 hours
Experimental: 3T3-L1 adipocyte cells are cultivated in a DMEM medium with 4.5 g/l glucose, 2 mM glutamine and 10% fetal bovine serum. Two days after the cell confluence phase, the differentiation of 3T3-L1 cells into adipocytes is induced by adding a solution of 0.5 mM of IBMX, 1 μM of dexamethasone and 10 μg/ml of insulin (Sigma, St. Louis, Mo., USA) in the culture medium for 3 days. Then, only the insulin is kept for 3 to 4 days of additional culture. The cells are then kept in culture, in a standard medium, for another 3 days. The treatment is performed from the start of the differentiation induction phase by a daily application, for 12 days, of 1×PBS (Lonza, Rockland, Me., USA) for the untreated control, carob germ extract with a dry weight of 2.5 g/kg as obtained in example 1, diluted to 1% in PBS, or carob germ extract as obtained in example 1, diluted to 1% in PBS and to which 2 mM of caffeine is added for the last 5 hours of the treatment. A 5-hour treatment with 2 mM of caffeine was also performed. […] The cell membranes are permeabilized with acetone for 4 minutes at -20° C. The non-specific sites are saturated with 3% bovine serum albumin (Sigma-Aldrich, […], Germany) for 15 minutes. […] Three images for each condition are analyzed using the Image-Pro Analyzer 6.3 software. […]

[1] = test system: differentiated 3T3-L1 adipocyte cells; assay: Nile Red detection of lipid droplets (intensity, size, number) in adipocytes; assay type: cell-based
Experimental: The culture, the differentiation of 3T3-L1 cells, then the treatment with the compounds to be tested are performed as in example 2. The lipid detection is performed using Nile Red fluorescent stain, a phenoxazone that intensely labels the intracellular lipids. The color of the fluorescence observed is directly dependent upon the hydrophobicity of the surrounding medium. This specific property of Nile Red makes it possible to differentiate neutral lipids, labeled in gold-yellow, from phospholipids, labeled in red. […] The cells are examined with the fluorescence microscope. The quantification and statistical analysis are performed as in example 2.

[2] = with respect to untreated cells

SMILES: Cn1c(=O)c2c(ncn2C)n(C)c1=O [Caffeine, caffeine]
- increase in fluorescence (aquaglyceroporin 7 immunolabeling) (aquaglyceroporin 7): 12.6%
- Average droplet size ([1]; differentiated 3T3-L1 cells): 109.55 μm^2
- Number of droplets ([1]; differentiated 3T3-L1 cells): 219
- Intensity of the Nile Red labeling, Ratio ([1]; differentiated 3T3-L1 cells, carob extract 1% 12 days, caffeine 2 mM 5 hours): 180.47 Pixels/μm^2
- intensity of the Nile Red labeling, size and number of droplets (in words) ([1]; with respect to the untreated cells): reduced
- Droplet size, % reduction [1, 2]: −17.40%
- Intensity of the Nile Red labeling, % reduction [1, 2]: −37.36%
- Number of droplets, % reduction [1, 2]: −18%
